Assay results from patent US11098102B2, “Insulin conjugates” (SANOFI, priority 2018, dated 2021).
Marks after values point to notes of the source that are not given here.

Columns and labels:
[1] = target: T1, immobilized human serum albumin (Homo sapiens, UniProt P02768); experiment: Albumin binding: affinity chromatography on columns with immobilized human serum albumin (net retention time); settings: isolated binders; HSA column 25° C., PBS pH 7.4/isopropanol gradient
T1 construct: purchased Chiralpak (Chiraltech) 34712
Method: In order to identify suitable binder molecules, which when bound to a peptide, such as an insulin, are able to improve the half-life in plasma and to prolong the profile of action, a system was established based on affinity chromatography with serum albumin columns, i.e. columns with immobilized serum albumin.
The net retention time of the binders (samples) was calculated according to the following formula: Net retention time=RetTimeSample−RetTimet0 marker
• Instrument: Waters Alliance 2795/Waters PDA 2996 or Waters H-Class UPLC equipped with a Waters Acquity photodiode-array detector • Software: Waters Empower 3 • Column: […]® HSA 50×4 mm; 5 μm Particle size • Chiraltech Order Numbers: HSA: 34712 • Eluent A: Phosphate Buffer saline (PBS) at pH=7.4 • Gibco PBS pH7.4 (10×) Phosphate Buffered Saline 500 ml; • Order Number: 70011-036 (500 ml) • Eluent B: Isopropanol • Fisher Order Number: A461-1 (10 • Gradient:
• Column temperature: 25° C. • Flow rate: 1.0 ml/min • Detection: λ=220 nm • Injection volume: 20 μL • Sample Conc.: 1 mg/ml insulin solution in PBS for insulin samples • 5 μL of 10 mM DMSO stock solution (DMSO evaporated and re-dissolved in 200 μL i-propanol/water 1:1 v/v) for isolated binder samples (250 μM, 0.2 mg/ml at 800 Da MolWeight) • t0 marker Sodium Nitrate (NaNO3) solution in water, 0.05 mg/ml • Diluted from aqueous 1 mg/ml stock solution (Fluka Order Number: 74246-100ML) • Reported Value Net retention time of sample: RetTime Sample−RetTime t0 marker
Affinity chromatography was carried out i) for insulin conjugates according to Examples 3.3 and 3.4 on a Waters Alliance Separation Module 2695 equipped with a Waters photodiode-array detector 2996 or Waters H-Class UPLC equipped with a Waters Acquity photodiode-array detector and ii) for isolated binders according to Example 2.11 on a Waters Alliance Separation Module 2795 equipped with a Waters photodiode-array detector 2996 or Waters H-Class UPLC equipped with a Waters Acquity photodiode-array detector.
Columns with immobilized human serum albumin (50×4 mm; 5 μm particle size) were purchased from Chiralpak and used for separations.
The columns with immobilized serum albumin were kept at 25° C. during the LC run, UV detection was carried out at 220 nm and injection volume was 20 μL.
The net retention time of the samples was reported according to Net retention time=RetTime Sample−RetTime t0 marker

[2] = target: Insulin degrading enzyme, IDE (Homo sapiens, UniProt P14735); experiment: In vitro proteolytic stability against insulin degrading enzyme (Example 9); format: in vitro ADME; settings: 37° C., 2 μM
Method: (§1) The stability determination was done using appropriate time points (for SIF and SGF 15, 30, 60, 120 and 240 minutes; for proteases 15, 30, 60 and 120 minutes). The incubation was done at 37° C. and the % of remaining parent compound was calculated in reference to a TO time point.
(§2) For the determination of the parent compound an appropriate bioanalytical LC-MS/MS or LC-HRMS method was used, using the supernatant, after protein precipitation with ethanol (1 eq. v/v) and a centrifugation step.
(§3) Compounds were dissolved in diluted hydrochloric acid at a final concentration of 40 μM. The compound concentration in the assay was 2 μM. A 1:20 dilution of the working solution was done into the protease buffer and samples are then incubated at 37° C., under stirring. At the appropriate time point and aliquot was taken, the reaction was quenched ethanol (1 eq. v/v), than centrifuged. The supernatant was analyzed.

[3] = target: T2, insulin receptor isoform B (IR-B) (Homo sapiens, UniProt P06213); experiment: Insulin receptor autophosphorylation assay (In-Cell Western, CHO cells, Example 8B); format: cell-based; design: expressed in transfected cells; host or cells: CHO cells; settings: relative to human insulin
[4] = target: T2, insulin receptor isoform B (IR-B); experiment: Insulin receptor binding affinity assay of insulin analogs (Example 8A, SPA competition binding); design: expressed in transfected cells; host or cells: CHO cells overexpressing the IR; isolated plasma membranes; settings: relative to human insulin; a value of 0 means below the detection limit
Method: Methods for determining the binding affinity of an insulin analog to an insulin receptor are well known in the art. […] The insulin receptor can be present in a membrane of a cell, e.g. of CHO (Chinese Hamster Ovary) cell, which overexpresses a recombinant insulin receptor. In an embodiment, the insulin receptor binding affinity is determined as described in the Examples section.
Insulin receptor binding affinity for the analogs listed in Table 4 was determined as described in Hartmann et al. (Effect of the long-acting insulin analogs glargine and degludec on cardiomyocyte cell signaling and function. Cardiovasc Diabetol. 2016; 15:96). Isolation of insulin receptor embedded plasma membranes (M-IR) and competition binding experiments were performed as previously described (Sommerfeld et al., PLoS One. 2010; 5 (3): e9540). Briefly, CHO-cells overexpressing the IR were collected and re-suspended in ice-cold 2.25 STM buffer (2.25 M sucrose, 5 mM Tris-HCl pH 7.4, 5 mM MgCl2, complete protease inhibitor) and disrupted using a Dounce homogenizer followed by sonication. The homogenate was overlaid with 0.8 STM buffer (0.8 M sucrose, 5 mM Tris-HCl pH 7.4, 5 mM MgCl2, complete protease inhibitor) and ultra-centrifuged for 90 min at 100,000 g. Plasma membranes at the interface were collected and washed twice with phosphate buffered saline (PBS). The final pellet was re-suspended in dilution buffer (50 mM Tris-HCl pH 7.4, 5 mM MgCl2, complete protease inhibitor) and again homogenized with a Dounce homogenizer. Competition binding experiments were performed in a binding buffer (50 mM Tris-HCl, 150 mM NaCl, 0.1% BSA, complete protease inhibitor, adjusted to pH 7.8) in 96-well microplates. In each well 2 μg isolated membrane was incubated with 0.25 mg wheat germ agglutinin polyvinyltoluene polyethylenimine scintillation proximity assay (SPA) beads. […] The radioactivity was measured at equilibrium in a microplate scintillation counter (Wallac Microbeta, Freiburg, Germany).”

[5] = target: T3, simulated gastric fluid (pepsin) (Sus scrofa, UniProt P00791); experiment: In vitro stability in simulated gastric fluid (Example 9); format: in vitro ADME, porcine; settings: 37° C., 2 μM
T3 construct: from tissue; host or cells: porcine stomach mucosa
Method: Two grams of sodium chloride and 3.2 g of purified pepsin (from porcine stomach mucosa, with an activity of 800 to 2500 units per mg of protein) were dissolved in 7.0 ml of hydrochloric acid. The volume was adjusted with water up to 1000 ml.
as §1, §2, §3

[6] = target: α-Chymotrypsin (Bos taurus, UniProt P00766); experiment: In vitro proteolytic stability against α-chymotrypsin (Example 9); format: in vitro ADME; settings: 37° C., 2 μM
Method: as §1, §2, §3

[7] = target: Cathepsin D (Homo sapiens, UniProt P07339); experiment: In vitro proteolytic stability against cathepsin D (Example 9); format: in vitro ADME; settings: 37° C., 2 μM
Chain of Cathepsin D (P07339 65-412, species assumed): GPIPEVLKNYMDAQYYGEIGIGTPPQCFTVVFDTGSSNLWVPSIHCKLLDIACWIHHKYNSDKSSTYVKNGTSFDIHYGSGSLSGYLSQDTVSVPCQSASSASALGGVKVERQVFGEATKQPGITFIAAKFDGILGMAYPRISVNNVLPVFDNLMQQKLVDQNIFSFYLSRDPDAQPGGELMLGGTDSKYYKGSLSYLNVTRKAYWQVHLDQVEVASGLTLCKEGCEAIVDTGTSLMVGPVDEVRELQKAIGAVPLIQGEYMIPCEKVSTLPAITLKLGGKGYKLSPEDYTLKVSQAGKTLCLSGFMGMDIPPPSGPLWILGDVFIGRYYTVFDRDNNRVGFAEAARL
Method: as §1, §2, §3

T1 sequence (P02768 25-609): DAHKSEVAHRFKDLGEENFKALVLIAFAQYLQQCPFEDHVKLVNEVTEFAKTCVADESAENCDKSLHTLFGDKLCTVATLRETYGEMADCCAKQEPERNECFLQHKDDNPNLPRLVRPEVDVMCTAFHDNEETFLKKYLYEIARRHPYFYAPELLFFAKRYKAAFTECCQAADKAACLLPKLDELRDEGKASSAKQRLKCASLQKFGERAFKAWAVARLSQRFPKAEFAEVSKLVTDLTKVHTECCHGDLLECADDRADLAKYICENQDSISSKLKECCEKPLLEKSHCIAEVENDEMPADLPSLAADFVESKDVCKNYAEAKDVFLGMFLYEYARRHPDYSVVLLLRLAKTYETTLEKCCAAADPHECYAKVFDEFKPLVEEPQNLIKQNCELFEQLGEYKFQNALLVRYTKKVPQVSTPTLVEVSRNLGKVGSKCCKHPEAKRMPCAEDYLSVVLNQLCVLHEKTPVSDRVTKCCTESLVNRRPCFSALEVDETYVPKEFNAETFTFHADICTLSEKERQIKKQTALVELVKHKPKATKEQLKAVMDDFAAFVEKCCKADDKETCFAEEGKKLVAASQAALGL
T2 sequence (P06213 28-758 limits assumed): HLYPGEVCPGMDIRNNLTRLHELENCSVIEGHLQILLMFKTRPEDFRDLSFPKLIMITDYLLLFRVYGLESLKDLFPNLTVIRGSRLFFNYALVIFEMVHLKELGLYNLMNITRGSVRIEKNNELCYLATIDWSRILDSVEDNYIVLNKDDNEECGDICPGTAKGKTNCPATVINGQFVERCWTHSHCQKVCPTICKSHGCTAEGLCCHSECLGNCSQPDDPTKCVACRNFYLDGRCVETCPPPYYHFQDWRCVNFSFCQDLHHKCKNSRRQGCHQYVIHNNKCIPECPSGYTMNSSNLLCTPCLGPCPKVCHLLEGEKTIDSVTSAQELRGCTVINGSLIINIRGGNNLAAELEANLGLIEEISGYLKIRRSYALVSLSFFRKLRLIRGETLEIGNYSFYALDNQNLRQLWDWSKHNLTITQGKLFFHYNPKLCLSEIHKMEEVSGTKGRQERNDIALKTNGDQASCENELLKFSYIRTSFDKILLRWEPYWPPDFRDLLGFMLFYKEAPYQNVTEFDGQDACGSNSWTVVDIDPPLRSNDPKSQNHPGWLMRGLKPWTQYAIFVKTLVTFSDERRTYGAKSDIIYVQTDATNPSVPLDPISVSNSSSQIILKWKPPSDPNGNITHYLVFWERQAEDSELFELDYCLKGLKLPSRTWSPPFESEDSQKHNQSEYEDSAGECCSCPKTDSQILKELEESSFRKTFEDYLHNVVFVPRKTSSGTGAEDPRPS
T2 sequence (P06213 763-1382 limits assumed): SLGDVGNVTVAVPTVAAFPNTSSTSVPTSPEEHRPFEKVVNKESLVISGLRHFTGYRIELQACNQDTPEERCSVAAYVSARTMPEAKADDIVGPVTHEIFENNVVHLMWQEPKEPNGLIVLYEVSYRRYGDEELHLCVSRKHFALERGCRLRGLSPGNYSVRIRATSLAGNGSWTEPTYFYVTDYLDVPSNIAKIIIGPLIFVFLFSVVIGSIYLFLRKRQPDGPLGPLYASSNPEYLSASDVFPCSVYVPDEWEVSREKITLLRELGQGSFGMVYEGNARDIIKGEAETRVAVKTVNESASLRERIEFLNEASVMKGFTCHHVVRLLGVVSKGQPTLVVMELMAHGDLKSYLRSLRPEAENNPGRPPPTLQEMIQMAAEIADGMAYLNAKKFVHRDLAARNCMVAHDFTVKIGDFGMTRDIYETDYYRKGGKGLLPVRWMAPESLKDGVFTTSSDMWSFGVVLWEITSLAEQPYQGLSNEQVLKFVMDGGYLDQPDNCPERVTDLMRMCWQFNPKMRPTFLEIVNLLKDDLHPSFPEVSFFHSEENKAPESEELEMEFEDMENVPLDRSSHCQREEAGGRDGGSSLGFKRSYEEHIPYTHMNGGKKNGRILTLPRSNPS
T3 sequence (P00791 60-385): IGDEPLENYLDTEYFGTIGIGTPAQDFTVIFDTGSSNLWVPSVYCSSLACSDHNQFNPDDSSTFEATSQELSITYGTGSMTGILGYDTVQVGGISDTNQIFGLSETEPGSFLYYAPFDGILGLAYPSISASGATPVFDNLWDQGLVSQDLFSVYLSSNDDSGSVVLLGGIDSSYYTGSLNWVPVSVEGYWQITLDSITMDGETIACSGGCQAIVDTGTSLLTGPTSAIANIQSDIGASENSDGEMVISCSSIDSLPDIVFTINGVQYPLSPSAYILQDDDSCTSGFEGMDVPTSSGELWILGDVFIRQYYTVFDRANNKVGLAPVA

| SMILES | NRT [min] (net retention time on columns with immobilized human serum albumin) [1] | Percent remaining insulin analog, Insulin degrading enzyme, IDE (30 minutes) [2] | autophosphorylation activity [3] | Insulin-receptor binding affinity [4] | Percent remaining insulin analog, Gastric fluid (30 minutes) [5] | Percent remaining insulin analog, α-Chymotrypsin (120 minutes) [6] | Percent remaining insulin analog, Cathepsin D (30 minutes) [7] |
| --- | --- | --- | --- | --- | --- | --- | --- |
| O=C(O)CCCCCCCCCCCCCc1ccc(Oc2ccc(S(=O)(=O)Nc3ncc(C(=O)NCCOCCOCC(=O)NCCOCCOCC(=O)O)cn3)cc2)cc1 [Binder 11] | 14.52 min | 12% | 0.06 | 0.01 |  |  |  |
| O=C(O)CCCCCCCCCCCc1cc(Oc2ccc(S(=O)(=O)Nc3ncc(C(=O)NCCOCCOCC(=O)NCCOCCOCC(=O)O)cn3)cc2)ccc1F [Binder 28] | 15.39 min |  | 0.11 | 0.12 |  |  |  |
| O=C(O)CCCCCCCCCCCOc1ccc(CCc2ccc(S(=O)(=O)Nc3ccc(C(=O)NCCOCCOCC(=O)NCCOCCOCC(=O)O)cn3)cc2)cc1 [Binder 25] | 17.48 min |  | 0.03 | 0.02 |  |  |  |
| O=C(O)CCCCCCCCCCCCCCCOc1ccc(S(=O)(=O)Nc2ccc(C(=O)NCCOCCOCC(=O)NCCOCCOCC(=O)O)cn2)c(Cl)c1Cl [Binder 36] | 13.89 min |  | 0.23 | 0.17 |  |  |  |
| O=C(O)CCCCCCCCCCCCCc1ccc(S(=O)(=O)Nc2ccc(C(=O)NCCOCCOCC(=O)NCCOCCOCC(=O)O)cn2)cc1 [Binder 30] | 14.36 min |  | 0.01 | 0** |  |  |  |
| O=C(O)CCCCCCCCCCCCCCCCCc1ccc(S(=O)(=O)Nc2ncc(C(=O)NCCOCCOCC(=O)NCCOCCOCC(=O)O)cn2)cc1 [Binder 4] | 15.75 min |  | 0.4 | 0.57 |  |  |  |
| O=C(O)CCCCCCCCCCCCCCCCCc1ccc(S(=O)(=O)Nc2ccc(C(=O)NCCOCCOCC(=O)NCCOCCOCC(=O)O)cn2)cc1 [Binder 31] | 15.77 min |  | 0.13 | 0.12 |  |  |  |
| O=C(O)CCCCCCCCCCCCCOc1ccc(S(=O)(=O)Nc2ncc(C(=O)NCCOCCOCC(=O)NCCOCCOCC(=O)O)cn2)cc1 [Binder 33] | 13.57 min |  | 0.02 | 0.01 |  |  |  |
| O=C(O)CCCCCCCCCCCOc1ccc(S(=O)(=O)Nc2ncc(C(=O)NCCOCCOCC(=O)NCCOCCOCC(=O)O)cn2)cc1 [Binder 16] | 11.88 min | 88% | 0.29 | 0.36 |  |  |  |
| O=C(O)CCCCCCCCCCCCCc1ccc(S(=O)(=O)Nc2ccc(C(=O)NCCOCCOCC(=O)NCCOCCOCC(=O)O)cn2)cc1 [Binder 20] | 14.8 min |  | 0.28 | 0.4 |  |  |  |
| O=C(O)CCCCCCCCCCCCCCCOc1ccc(S(=O)(=O)Nc2ccc(C(=O)NCCOCCOCC(=O)NCCOCCOCC(=O)O)cn2)cc1F [Binder 39] | 13.68 min |  | 0.02 | 0 |  |  |  |
| O=C(O)CCCCCCCCCCCCCCCc1cc(Oc2ccc(S(=O)(=O)Nc3ccc(C(=O)NCCOCCOCC(=O)NCCOCCOCC(=O)O)cn3)cc2)ccc1F [Binder 23] | 15.61 min | 80% | 0.37 | 0.56 |  |  |  |
| O=C(O)CCCCCCCCCCCOc1ccc(S(=O)(=O)Nc2ccc(C(=O)NCCOCCOCC(=O)NCCOCCOCC(=O)O)cn2)cc1 [Binder 18] | 12.37 min |  | 0.18 | 0.23 |  |  |  |
| O=C(O)CCCCCCCCCCCOc1ccc(CCc2ccc(S(=O)(=O)Nc3ncc(C(=O)NCCOCCOCC(=O)NCCOCCOCC(=O)O)cn3)cc2)cc1 [Binder 3] | 17.51 min |  | 0.34 | 0.24 |  |  |  |
| O=C(O)CCCCCCCCCc1ccc(CCOc2ccc(S(=O)(=O)Nc3ccc(C(=O)NCCOCCOCC(=O)NCCOCCOCC(=O)O)cn3)cc2)cc1 [Binder 26] | 14.98 min |  | 0.07 | 0.01 |  |  |  |
| O=C(O)CCCCCCCCCc1ccc(CCOc2ccc(S(=O)(=O)Nc3ncc(C(=O)NCCOCCOCC(=O)NCCOCCOCC(=O)O)cn3)cc2)cc1 [Binder 10] | 15.65 min |  | 0.31 | 0.37 |  |  |  |
| O=C(O)CCCCCCCCCCCCCOc1ccc(S(=O)(=O)Nc2ccc(C(=O)NCCOCCOCC(=O)NCCOCCOCC(=O)O)cn2)cc1 [Binder 32] | 13.9 min |  | 0.04 | 0 |  |  |  |
| O=C(O)CCCCCCCCCCCc1cccc(S(=O)(=O)Nc2ccc(C(=O)NCCOCCOCC(=O)NCCOCCOCC(=O)O)cn2)c1 [Binder 40] | 11.44 min |  | 0.01 | 0.01 |  |  |  |
| O=C(O)CCCCCCCCCCCCCCc1cc(Oc2ccc(S(=O)(=O)Nc3ncc(C(=O)NCCOCCOCC(=O)NCCOCCOCC(=O)O)cn3)cc2)ccc1F [Binder 13] | 15.29 min |  | 0.1 | 0.11 |  |  |  |
| O=C(O)CCCCCCCCCOc1ccc(S(=O)(=O)Nc2ccc(C(=O)NCCOCCOCC(=O)NCCOCCOCC(=O)O)cn2)cc1 [Binder 19] | 10.82 min | 98% | 0.32 |  | 0% | 30% | 0% |
